In ChEMBL document CHEMBL3091308, “Bisindole alkaloids with neural anti-inflammatory activity from Gelsemium elegans” (J Nat Prod, 2013):

Experiments:
[1] = Cytotoxicity against […] cells at 50 uM after 72 hrs by MTT assay; format: cell-based; details: bv-2, 72 h
[2] = Cytotoxicity against human HCT8 cells at 10 uM after 72 hrs by MTT assay; format: cell-based; details: hct-8, 72 h
[3] = system: RAW; assay: Cytotoxicity against mouse RAW cells at 50 uM after 72 hrs by MTT assay; format: cell-based
[4] = system: A2780; assay: Cytotoxicity against human A2780 cells at 10 uM after 72 hrs by MTT assay; format: cell-based; details: a2780, 72 h
[5] = Cytotoxicity against human Bel7402 cells at 10 uM after 72 hrs by MTT assay; format: cell-based; details: bel-7402, 72 h
[6] = Cytotoxicity against human BGC823 cells at 10 uM after 72 hrs by MTT assay; format: cell-based; details: bgc-823, 72 h
[7] = system: A549; assay: Cytotoxicity against human A549 cells at 10 uM after 72 hrs by MTT assay; format: cell-based; details: a549, 72 h
[8] = (§1) Antiinflammatory activity in […] cells assessed as inhibition of LPS-induced NO production measured 24 hrs post LPS-challenge by spectrophotometry; format: functional, cell-based; details: BV-2, 24 h
[9] = system: BV-2; assay: as §1; format: functional, cell-based

CON1C(=O)[C@@]2(C[C@@H]3N=C([C@@](C)(O)C[C@@H](C)[C@@]45ON4[C@H]4C[C@@]6(C(=O)N(OC)c7ccccc76)[C@H]6C[C@@H]5[C@@H]4CO6)[C@@H]4C[C@H]2OC[C@H]34)c2ccccc21 (some centres undefined)
Non-toxic: Activity [1] | Activity [2] | Activity [3] | Activity [4] | Activity [5] | Activity [6] | Activity [7]

COc1cc(/C=C/C(=O)CC(=O)/C=C/c2ccc(O)c(OC)c2)ccc1O [CURCUMIN]
3.9 µM: IC50 [8]

CON1C(=O)[C@@]2(C[C@@H]3N=C([C@](C)(O)C[C@@H](C)[C@@]45ON4[C@H]4C[C@@]6(C(=O)N(OC)c7ccccc76)[C@H]6C[C@@H]5[C@@H]4CO6)[C@@H]4C[C@H]2OC[C@H]34)c2ccccc21 (some centres undefined)
active: inhibition [9] Dose-dependent effect
10.2 µM: IC50 [8]
Non-toxic: Activity [1] | Activity [2] | Activity [3] | Activity [4] | Activity [5] | Activity [6] | Activity [7]

C/C=C1\CN2C(=O)[C@]3(c4cc(-c5cc([C@@]67C[C@H]8[C@H]9CO[C@@H]6C[C@H]9/C(=C/C)CN8C7=O)c(N)cc5OC)c(OC)cc4N)C[C@H]2[C@H]2CO[C@@H]3C[C@@H]12
Non-toxic: Activity [1] | Activity [2] | Activity [3] | Activity [4] | Activity [5] | Activity [6] | Activity [7]
